# According to patent US20250179103A1, “6-OXODECAHYDROPYRROLO[1,2-A][1,5]DIAZOCINE AND 6-OXODECAHYDRO-4H-PYRROLO[2,1-D][1,5]THIAZOCINE DERIVATIVES AS STAT3 AND STAT6 MODULATORS FOR THE TREATMENT OF CANCER AND INFLAMMATORY CONDITIONS” (Recludix Pharma, Inc., priority 2022, published 2025):
# Test system: pY641-STAT6 in Peripheral Blood Mononuclear Cells (PBMC)
# Assay: MSD-pSTAT-PBMC Assay (pSTAT6, IL-4 stimulated)
# Type: cell-based, Human
# Conditions: Homo sapiens, compound 3 hrs, then 1 ng/mL IL-4 for 10 min
# From the text: (§1) Cryopreserved Peripheral Blood Mononuclear Cells (PBMC) are from AllCells. Recombinant Human IL-4 and IL-6 are from Peprotech. Mouse monoclonal anti-STAT3 antibody, rabbit monoclonal anti-pY705-STAT3 antibody, rabbit monoclonal Anti-pY641-STAT6 antibody, and lysis buffer are from Cell Signaling Technology (CST). Mouse monoclonal anti-STAT6 antibody is from BioLegend. Assay plates, blocker, and anti-rabbit secondary antibody are from Meso Scale Discovery (MSD).
# (§2) Cryopreserved PBMCs were thawed out and allowed to recover overnight in IMDM+10% heat-inactivated FBS prior to plating 50,000 (STAT3) or 25,000 (STAT6) cells per well in 96-well U-bottom tissue culture plates. Cells were treated with compound for 3 hrs, then stimulated with 10 ng/mL IL-6 (STAT3) or 1 ng/mL IL-4 (STAT6) for 10 min. Cells were then spun down and washed with ice-cold PBS prior to lysing the cell pellet with 1× lysis buffer (CST) with 1×HALT protease and phosphatase inhibitor cocktail (Thermo). Lysates were transferred to and incubated overnight at 4° C. with shaking in QuickPlex 96-well high bind assay plates (MSD) pre-coated overnight with 30 μL per well of 0.6 μg/mL mouse monoclonal anti-STAT3 antibody (STAT3) or 2 μg/mL mouse monoclonal anti-STAT6 antibody (STAT6) in 1×PBS, and pre-blocked for 1 hour with 3% Blocker-A (MSD). Captured protein in the assay plates were then washed and probed with 25 μL per well of 0.25 μg/ml rabbit monoclonal anti-pY705-STAT3 antibody (STAT3) or […] rabbit monoclonal Anti-pY641-STAT6 antibody (STAT6) in 1% Blocker-A for 1 hour at room temperature with shaking, then washed and probed with 25 ul per well of 1 ug/ml Sulfo-TAG Labeled Goat Anti-Rabbit Antibody (MSD) in 1% Blocker-A for 1 hour at room temperature with shaking. Assay plates were then washed and 150 μL of 1× Read Buffer-T (MSD) was added to each well prior to reading on an SQ120 MSD Plate Reader. Assay signal from each sample was subtracted by the signal from unstimulated control wells and normalized to DMSO control wells. IC50 values were calculated using Graph Pad Prism Dose-Response Nonlinear Regression with variable slope. For both pSTAT3 and pSTAT6 A=≤100 nM; B=>100-1000 nM; C=>1000-3000 nM; and D=>3 μM.
row,SMILES,IC50 [nM]
1,"CCCOC(=O)[C@H](C)NP(=O)(Oc1ccccc1)C(F)c1ccc2ccc(C(=O)N[C@H]3CN(C(=O)c4noc5ccc(Cl)cc45)CC[C@H]4CC[C@@H](C(=O)N5CCOCC5)N4C3=O)cc2c1 (stereo partly drawn) [Compound 430, propyl (((7-(((5S,8S,10aR)-3-(5-chlorobenzo[d]isoxazole-3-carbonyl)-8-(morpholine-4-carbonyl)-6-oxodecahydro-pyrrolo [1,2-a][1,5]diazocin-5-yl)carbamoyl)naphthalen-2-yl)fluoromethyl) (phenoxy)phosphoryl)-L-alaninate]",≤ 100
2,"Cc1ccc2[nH]nc(C(=O)N3CC[C@H]4CC[C@@H](C(=O)N5C[C@H](c6cc[nH]c(=O)c6)CC56CC6)N4C(=O)[C@@H](NC(=O)c4ccc5ccc(C(F)(F)P(=O)(OCCSC(=O)CC(C)C)OCCSC(=O)CC(C)C)cc5c4)C3)c2c1 [Compound 431, S,S′-((((difluoro(7-(((5S,8S,10aR)-3-(5-methyl-1H-indazole-3-carbonyl)-6-oxo-8-(6-(2-oxo-1,2-dihydropyridin-4-y1)-4-azaspiro[2.4]heptane-4-carbonyl)dec-ahydropyrrolo [1,2-a][1,5]diazocin-5-yl)carbamoyl)naphthalen-2-yl)methyl)phosphoryl)bis(oxy))bis(ethane-2,1-diyl)) bis(3-methylbutane thioate)]",≤ 100
3,"Cc1ccc2[nH]nc(C(=O)N3CC[C@H]4CC[C@@H](C(=O)N5CC(c6cc[nH]c(=O)c6)CC56CC6)N4C(=O)[C@@H](NC(=O)c4ccc5ccc(C(F)(F)P(=O)(OCCSC(=O)C(C)(C)C)OCCSC(=O)C(C)(C)C)cc5c4)C3)c2c1 (stereo partly drawn) [Compound 432, S,S′-((((difluoro(7 (((5S,8S,10aR)-3-(5-methyl-1H-indazole-3-carbonyl)-6-oxo-8-(6-(2-oxo-1,2-dihydro-pyridin-4-yl)-4-azaspiro [2.4]heptane-4-carbonyl)dec-ahydropyrrolo [1,2a][1,5]diazocin-5-yl)carbamoyl)naphthalen-2-yl)methyl)phosphoryl)bis(oxy))bis (ethane-2,1-diyl))bis(2,2-dimethylpro-panethioate)]",≤ 100
4,"Cc1ccc2onc(C(=O)N3CC[C@H]4CC[C@@H](C(=O)N5C[C@H](c6cc[nH]c(=O)c6)CC56CC6)N4C(=O)[C@@H](NC(=O)c4ccc5ccc(C(F)(F)P(=O)(OCCSC(=O)C(C)(C)C)OCCSC(=O)C(C)(C)C)cc5c4)C3)c2c1 [Compound 434, S,S′-((((difluoro(7 (((5S,8S,10aR)-3-(5-methylbenzo [d]isoxazole-3-carbonyl)-6-oxo-8-((S)-6-(2-oxo-1,2-dihydropyridin-4-yl)-4-azaspiro[2.4]heptane-4-carbonyl)decahydro-pyrrolo [1,2-a][1,5]diazocin-5-yl)carbamoyl)naphthalen-2-yl)methyl)phosphoryl)bis (oxy))bis (ethane-2,1-diyl)) bis(2,2-dimethyl-propanethioate)]",≤ 100
5,"Cc1ccc2onc(C(=O)N3CC[C@H]4CC[C@@H](C(=O)N5C[C@@H](c6cc[nH]c(=O)c6)CC56CC6)N4C(=O)[C@@H](NC(=O)c4ccc5ccc(C(F)(F)P(=O)(OCCSC(=O)C(C)(C)C)OCCSC(=O)C(C)(C)C)cc5c4)C3)c2c1 [Compound 435, S,S′-((((difluoro(7 (((5S,8S,10aR)-3-(5-methylbenzo [d]isoxazole-3-carbonyl)-6-oxo-8-((R)-6-(2-oxo-1,2-dihydro-pyridin-4-yl)-4-azaspiro[2.4]heptane-4-carbonyl)decahydro-pyrrolo[1,2-a] [1,5]diazocin-5-yl)carbamoyl)naphthalen-2-yl)methyl)phosphoryl)bis(oxy))bis (ethane-2,1-diyl))bis(2,2-dimethyl-propanethioate)]",≤ 100
6,"Cc1ccc2onc(C(=O)N3CC[C@H]4CC[C@@H](C(=O)N5C[C@@H](c6ccn(C)c(=O)c6)CC56CC6)N4C(=O)[C@@H](NC(=O)c4ccc5ccc(C(F)(F)P(=O)(OCCSC(=O)C(C)(C)C)OCCSC(=O)C(C)(C)C)cc5c4)C3)c2c1 [Compound 436, S,S′-((((difluoro(7-(((5S,8S,10aR)-8-((R)-6-(1-methyl-2-oxo-1,2-dihydropyridin-4-yl)-4-azaspiro[2.4]heptane-4-carbonyl)-3-(5-methylbenzo [d]isoxazole-3-carbonyl)-6-oxodeca-hydropyrrolo [1,2-a][1,5]diazocin-5-yl)carbamoyl)naphthalen-2-yl)methyl)phosphoryl)bis (oxy))bis (ethane-2,1-diyl))bis(2,2-dimethyl-propanethioate)]",≤ 100
7,"Cc1ccc2onc(C(=O)N3CC[C@H]4CC[C@@H](C(=O)N5C[C@H](c6ccn(C)c(=O)c6)CC56CC6)N4C(=O)[C@@H](NC(=O)c4ccc5ccc(C(F)(F)P(=O)(OCCSC(=O)C(C)(C)C)OCCSC(=O)C(C)(C)C)cc5c4)C3)c2c1 [Compound 437, S,S′-((((difluoro(7 (((5S,8S,10aR)-8-((S)-6-(1-methyl-2-oxo-1,2-dihydropyridin-4-yl)-4-azaspiro[2.4]heptane-4-carbonyl)-3-(5-methylbenzo [d]isoxazole-3-carbonyl)-6-oxodeca-hydropyrrolo [1,2-a][1,5]diazocin-5-yl)carbamoyl)naphthalen-2-yl)methyl)phosphoryl)bis (oxy))bis (ethane-2,1-diyl))bis(2,2-dimethyl-propanethioate)]",≤ 100
8,"Cc1ccc2onc(C(=O)N3CC[C@H]4CC[C@@H](C(=O)N5C[C@H](c6ccn(C)c(=O)c6)CC56CC6)N4C(=O)[C@@H](NC(=O)c4ccc5ccc(C(F)(F)P(=O)(OCCSC(=O)CC(C)C)OCCSC(=O)CC(C)C)cc5c4)C3)c2c1 [Compound 438, S,S′-((((difluoro(7 (((5S,8S,10aR)-8-((S)-6-(1-methyl-2-oxo-1,2-dihydropyridin-4-yl)-4-azaspiro[2.4]heptane-4-carbonyl)-3-(5-methylbenzo [d]isoxazole-3-carbonyl)-6-oxodeca-hydropyrrolo [1,2-a][1,5]diazocin-5-yl)carbamoyl)naphthalen-2-yl)methyl)phosphoryl)bis (oxy))bis (ethane-2,1-diyl))bis(3-methylbutane thioate)]",≤ 100
9,"CCCC(=O)SCCOP(=O)(OCCSC(=O)CCC)C(F)(F)c1ccc2ccc(C(=O)N[C@H]3CN(C(=O)c4noc5ccc(C)cc45)CC[C@H]4CC[C@@H](C(=O)N5C[C@H](c6ccn(C)c(=O)c6)CC56CC6)N4C3=O)cc2c1 [Compound 439, S,S′-((((difluoro(7 (((5S,8S,10aR)-8-((S)-6-(1-methyl-2-oxo-1,2-dihydropyridin-4-yl)-4-azaspiro[2.4]heptane-4-carbonyl)-3-(5-methylbenzo [d]isoxazole-3-carbonyl)-6-oxodeca-hydropyrrolo [1,2-a][1,5]diazocin-5-yl)carbamoyl)naphthalen-2-yl)methyl)phosphoryl)bis (oxy))bis (ethane-2,1-diyl)) dibutanethioate]",≤ 100
10,"CCCOC(=O)[C@H](C)NP(=O)(Oc1ccccc1)C(F)c1ccc2ccc(C(=O)N[C@H]3CN(C(=O)c4noc5ccc(C)cc45)CC[C@H]4CC[C@@H](C(=O)N5C[C@@H](C)O[C@@H](C)C5)N4C3=O)cc2c1 (stereo partly drawn) [Compound 440, propyl (((7-(((5S,8S,10aR)-8-((2R,6S)-2,6-dimethyl-morpholine-4-carbonyl)-3-(5-methylbenzo [d]isoxazole-3-carbonyl)-6-oxodeca-hydropyrrolo [1,2-a][1,5]diazocin-5-yl)carbamoyl)naphthalen-2-yl)fluoromethyl) (phenoxy)phosphoryl)-L-alaninate]",≤ 100
11,CCCOC(=O)[C@H](C)NP(=O)(Oc1ccccc1)C(F)c1ccc2sc(C(=O)N[C@H]3CN(CC(F)F)CC[C@H]4CC[C@@H](C(=O)N5C[C@@H](C#N)[C@H](c6ccccc6)C5)N4C3=O)cc2c1 (stereo partly shown) [Compound 441],≤ 100

# Test system: pY705-STAT3 in Peripheral Blood Mononuclear Cells (PBMC)
# Assay: MSD-pSTAT-PBMC Assay (pSTAT3, IL-6 stimulated)
# Type: cell-based, Human
# Conditions: Homo sapiens, compound 3 hrs, then 10 ng/mL IL-6 for 10 min
# From the text: as §1, §2
row,SMILES,IC50 [nM]
1,CC(C)OC(=O)[C@H](C)NP(=O)(Cc1ccc2sc(C(=O)N[C@H]3CN(Cc4ccn5ccnc5c4)CC[C@H]4CC[C@@H](C(=O)N5CC(c6cccnc6)C5)N4C3=O)cc2c1)NCc1ccccc1 (stereo partly shown) [Compound 333],> 3000
2,"CC(C)OC(=O)OCOP(=O)(Cc1ccc2sc(C(=O)N[C@H]3CN(Cc4ccn5ccnc5c4)CC[C@H]4CC[C@@H](C(=O)N5CC(c6cccnc6)C5)N4C3=O)cc2c1)OCOC(=O)OC(C)C [Compound 338, ((((2-(((5S,8S,10aR)-3-(imidazo[1,2-a]pyridin-7-ylmethyl)-6-oxo-8-(3-(pyridin-3-yl)azetidine-1-carbonyl)decahydropyrrolo[1,2-a][1,5]diazocin-5-yl)carbamoyl)benzo[b]thiophen-5-yl)methyl)phosphoryl)bis (oxy))bis(methylene)diisopropylbis(carbonate)]",100 to 1000
